Assay results from ChEMBL document CHEMBL4680155, “One-pot synthesis and molecular docking of some new spiropyranindol-2-one derivatives as immunomodulatory agents and in vitro antimicrobial potential with DNA gyrase inhibitor” (Eur J Med Chem, 2020).
Values after ≈ are worked out from the molar mass of the structure shown.

How the values were obtained:
Escherichia coli [1] = experiment: Bactericidal activity against Escherichia coli ATCC BAA-196 incubated for 24 hrs followed by transferring to freshly prepared broth medium and measured after 24 hrs by broth microdilution assay; assay type: functional; details: time 48 hrs
Neutrophil = experiment: Immunomodulatory activity in human neutrophils infected with bacteria assessed as increase in bacterial killing by measuring reduced NBT incubated for 30 mins by NBT dye based spectrophotometry; assay type: functional; parameters: concentration or dose not given beside the values; details: 0.5 h
Candida albicans [2] = experiment: Fungicidal activity against Candida albicans ATCC 10231 incubated for 24 hrs followed by transferring to freshly prepared broth medium and measured after 24 hrs by broth microdilution assay; assay type: functional; details: time 48 hrs
Staphylococcus aureus [3] = experiment: Antibacterial activity against multidrug resistant Staphylococcus aureus ATCC 33591 assessed as reduction in bacterial growth incubated for 1 day by paper disk diffusion method; assay type: functional; details: ATCC 33591, 24 h
Enterococcus faecalis [4] = experiment: Bactericidal activity against Enterococcus faecalis ATCC 29212 incubated for 24 hrs followed by transferring to freshly prepared broth medium and measured after 24 hrs by broth microdilution assay; assay type: functional; details: time 48 hrs
Candida albicans [5] = experiment: Antifungal activity against Candida albicans ATCC 10231 assessed as diameter of inhibition zone at 0.5 mg/ml incubated for 24 hrs by agar diffusion method; assay type: functional; details: read-out: DIZ
Staphylococcus aureus [6] = experiment: Antibacterial activity against multidrug resistant Staphylococcus aureus ATCC 43300 assessed as reduction in bacterial growth incubated for 1 day by paper disk diffusion method; assay type: functional; details: ATCC 43300, 24 h
Salmonella typhimurium [7] = experiment: Antibacterial activity against Salmonella typhi ATCC 6539 assessed as reduction in bacterial growth incubated for 1 day by paper disk diffusion method; assay type: functional, Salmonella enterica subsp. enterica serovar Typhimurium; details: Salmonella enterica, ATCC 6539, 24 h
Escherichia coli [8] = experiment: Antibacterial activity against Escherichia coli ATCC 25922 assessed as reduction in bacterial growth incubated for 1 day by paper disk diffusion method; assay type: functional; details: ATCC 25922, 24 h
Staphylococcus aureus [9] = experiment: Antibacterial activity against multidrug resistant Staphylococcus aureus ATCC 43300 assessed as diameter of inhibition zone at 0.5 mg/ml incubated for 24 hrs by agar diffusion method; assay type: functional; details: read-out: DIZ
DNA gyrase = DNA gyrase (Staphylococcus aureus, UniProt P0A0K8+P20831); experiment: Inhibition of Staphylococcus aureus DNA gyrase using relaxed pBR322 DNA as substrate incubated for 45 mins by agarose gel electrophoresis method; assay type: protein-complex assay
Enterococcus faecalis [10] = experiment: Antibacterial activity against Enterococcus faecalis ATCC 29212 assessed as reduction in bacterial growth incubated for 1 day by paper disk diffusion method; assay type: functional; details: ATCC 29212, 24 h
Staphylococcus aureus [11] = experiment: Bactericidal activity against Staphylococcus aureus ATCC 33591 incubated for 24 hrs followed by transferring to freshly prepared broth medium and measured after 24 hrs by broth microdilution assay; assay type: functional; details: time 48 hrs
Escherichia coli [12] = experiment: Bactericidal activity against Escherichia coli ATCC 25922 incubated for 24 hrs followed by transferring to freshly prepared broth medium and measured after 24 hrs by broth microdilution assay; assay type: functional; details: time 48 hrs
Staphylococcus aureus [13] = experiment: Antibacterial activity against Staphylococcus aureus ATCC 29213 assessed as diameter of inhibition zone at 0.5 mg/ml incubated for 24 hrs by agar diffusion method; assay type: functional; details: read-out: DIZ
Staphylococcus aureus [14] = experiment: Bactericidal activity against Staphylococcus aureus ATCC 43300 incubated for 24 hrs followed by transferring to freshly prepared broth medium and measured after 24 hrs by broth microdilution assay; assay type: functional; details: time 48 hrs
Aspergillus brasiliensis [15] = experiment: Antifungal activity against Aspergillus brasiliensis ATCC 16404 assessed as diameter of inhibition zone at 0.5 mg/ml incubated for 72 hrs by agar diffusion method; assay type: functional; details: read-out: DIZ
Pseudomonas aeruginosa [16] = experiment: Antibacterial activity against multidrug resistant Pseudomonas aeruginosa ATCC BAA-2111 assessed as diameter of inhibition zone at 0.5 mg/ml incubated for 24 hrs by agar diffusion method; assay type: functional; details: read-out: DIZ
Candida albicans [17] = experiment: Antifungal activity against Candida albicans ATCC 10231 assessed as reduction in bacterial growth incubated for 1 day by paper disk diffusion method; assay type: functional; details: ATCC 10231, 24 h
Staphylococcus aureus [18] = experiment: Bactericidal activity against Staphylococcus aureus ATCC 29213 incubated for 24 hrs followed by transferring to freshly prepared broth medium and measured after 24 hrs by broth microdilution assay; assay type: functional; details: time 48 hrs
Staphylococcus aureus [19] = experiment: Antibacterial activity against Staphylococcus aureus ATCC 29213 assessed as reduction in bacterial growth incubated for 1 day by paper disk diffusion method; assay type: functional; details: ATCC 29213, 24 h
Pseudomonas aeruginosa [20] = experiment: Bactericidal activity against Pseudomonas aeruginosa ATCC BAA-2111 incubated for 24 hrs followed by transferring to freshly prepared broth medium and measured after 24 hrs by broth microdilution assay; assay type: functional; details: time 48 hrs
Escherichia coli [21] = experiment: Antibacterial activity against Escherichia coli ATCC 25922 assessed as diameter of inhibition zone at 0.5 mg/ml incubated for 24 hrs by agar diffusion method; assay type: functional; details: read-out: DIZ
Escherichia coli [22] = experiment: Antibacterial activity against multidrug resistant Escherichia coli ATCC BAA-196 assessed as reduction in bacterial growth incubated for 1 day by paper disk diffusion method; assay type: functional; details: ATCC BAA-196, 24 h
Staphylococcus aureus [23] = experiment: Antibacterial activity against multidrug resistant Staphylococcus aureus ATCC 33591 assessed as diameter of inhibition zone at 0.5 mg/ml incubated for 24 hrs by agar diffusion method; assay type: functional; details: read-out: DIZ
Enterococcus faecalis [24] = experiment: Antibacterial activity against Enterococcus faecalis ATCC 29212 assessed as diameter of inhibition zone at 0.5 mg/ml incubated for 24 hrs by agar diffusion method; assay type: functional; details: read-out: DIZ
Aspergillus brasiliensis [25] = experiment: Antifungal activity against Aspergillus brasiliensis ATCC 16404 assessed as reduction in bacterial growth incubated for 3 days by paper disk diffusion method; assay type: functional; details: ATCC 16404, 72 h, time 3 day
Escherichia coli [26] = experiment: Antibacterial activity against multidrug resistant Escherichia coli ATCC BAA-196 assessed as diameter of inhibition zone at 0.5 mg/ml incubated for 24 hrs by agar diffusion method; assay type: functional; details: read-out: DIZ
Salmonella typhimurium [27] = experiment: Antibacterial activity against Salmonella typhi ATCC 6539 assessed as diameter of inhibition zone at 0.5 mg/ml incubated for 24 hrs by agar diffusion method; assay type: functional, Salmonella enterica subsp. enterica serovar Typhimurium; details: Salmonella enterica, read-out: DIZ
Salmonella typhimurium [28] = experiment: Bactericidal activity against Salmonella typhi ATCC 6539 incubated for 24 hrs followed by transferring to freshly prepared broth medium and measured after 24 hrs by broth microdilution assay; assay type: functional, Salmonella enterica subsp. enterica serovar […]; details: Salmonella enterica, time 48 hrs
Aspergillus brasiliensis [29] = experiment: Fungicidal activity against Aspergillus brasiliensis ATCC 16404 incubated for 72 hrs followed by transferring to freshly prepared broth medium and measured after 24 hrs by broth microdilution assay; assay type: functional; details: time 96 hrs
Pseudomonas aeruginosa [30] = experiment: Antibacterial activity against multidrug resistant Pseudomonas aeruginosa ATCC BAA-2111 assessed as reduction in bacterial growth incubated for 1 day by paper disk diffusion method; assay type: functional; details: ATCC BAA-2111, 24 h

Chain of DNA gyrase (P0A0K8 whole entry, the tested form may be a part): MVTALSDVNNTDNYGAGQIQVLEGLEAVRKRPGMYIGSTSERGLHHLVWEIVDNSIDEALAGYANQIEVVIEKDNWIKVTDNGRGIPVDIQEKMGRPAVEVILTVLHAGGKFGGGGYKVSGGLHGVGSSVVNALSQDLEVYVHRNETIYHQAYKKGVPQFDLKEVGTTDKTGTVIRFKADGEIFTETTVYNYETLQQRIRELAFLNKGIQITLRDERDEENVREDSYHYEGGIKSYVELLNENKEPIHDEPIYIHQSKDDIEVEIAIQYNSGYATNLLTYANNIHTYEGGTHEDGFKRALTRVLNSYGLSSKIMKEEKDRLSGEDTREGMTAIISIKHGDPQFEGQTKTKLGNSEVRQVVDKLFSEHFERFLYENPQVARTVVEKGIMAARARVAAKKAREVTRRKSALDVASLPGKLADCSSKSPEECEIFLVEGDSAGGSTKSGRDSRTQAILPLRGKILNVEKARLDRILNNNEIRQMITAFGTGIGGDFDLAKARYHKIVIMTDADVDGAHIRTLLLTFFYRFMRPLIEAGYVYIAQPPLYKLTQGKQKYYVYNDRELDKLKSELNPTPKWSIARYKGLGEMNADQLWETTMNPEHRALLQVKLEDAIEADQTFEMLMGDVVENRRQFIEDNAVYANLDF
Chain of DNA gyrase (P20831 whole entry, the tested form may be a part): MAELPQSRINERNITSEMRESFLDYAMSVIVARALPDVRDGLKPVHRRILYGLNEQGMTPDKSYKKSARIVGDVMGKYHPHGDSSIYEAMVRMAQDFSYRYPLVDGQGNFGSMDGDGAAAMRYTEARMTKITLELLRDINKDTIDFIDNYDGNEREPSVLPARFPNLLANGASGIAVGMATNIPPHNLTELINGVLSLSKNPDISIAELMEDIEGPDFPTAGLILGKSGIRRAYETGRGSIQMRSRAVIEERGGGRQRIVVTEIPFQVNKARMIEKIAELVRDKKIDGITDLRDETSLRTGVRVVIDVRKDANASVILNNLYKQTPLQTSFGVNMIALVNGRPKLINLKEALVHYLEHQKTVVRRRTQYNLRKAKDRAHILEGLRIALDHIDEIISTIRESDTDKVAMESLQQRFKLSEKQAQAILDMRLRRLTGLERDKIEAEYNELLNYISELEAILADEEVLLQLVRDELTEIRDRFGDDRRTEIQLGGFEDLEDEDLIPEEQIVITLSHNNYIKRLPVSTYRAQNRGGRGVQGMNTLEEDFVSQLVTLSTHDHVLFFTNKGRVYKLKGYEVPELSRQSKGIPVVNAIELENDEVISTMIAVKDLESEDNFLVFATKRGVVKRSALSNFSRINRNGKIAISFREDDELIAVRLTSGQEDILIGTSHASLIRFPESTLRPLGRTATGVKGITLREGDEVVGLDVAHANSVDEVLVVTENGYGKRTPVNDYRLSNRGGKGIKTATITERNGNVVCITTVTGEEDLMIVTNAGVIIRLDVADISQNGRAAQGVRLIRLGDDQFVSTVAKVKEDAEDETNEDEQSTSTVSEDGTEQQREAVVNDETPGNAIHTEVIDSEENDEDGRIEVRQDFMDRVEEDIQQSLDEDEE

Row | Structure (SMILES) | MBC (Escherichia coli [1]) | Activity (Neutrophil) | MFC (Candida albicans [2]) | MIC (Staphylococcus aureus [3]) | MBC (Enterococcus faecalis [4]) | zone of inhibition at 500 µg/mL (Candida albicans [5]) | MIC (Staphylococcus aureus [6]) | MIC (Salmonella typhimurium [7]) | MIC (Escherichia coli [8]) | zone of inhibition at 500 µg/mL (Staphylococcus aureus [9]) | IC50 (DNA gyrase) | MIC (Enterococcus faecalis [10]) | MBC (Staphylococcus aureus [11]) | MBC (Escherichia coli [12]) | zone of inhibition at 500 µg/mL (Staphylococcus aureus [13]) | MBC (Staphylococcus aureus [14]) | zone of inhibition at 500 µg/mL (Aspergillus brasiliensis [15]) | zone of inhibition at 500 µg/mL (Pseudomonas aeruginosa [16]) | MIC (Candida albicans [17]) | MBC (Staphylococcus aureus [18]) | other results
1 | N#CC(C#N)=C1C(=O)Nc2ccc(S(=O)(=O)N3CCOCC3)cc21 | 6.24 mg/L (≈ 18.1 µM) | 145.7% | 12.5 mg/L (≈ 36.3 µM) | 4.44 mg/L (≈ 12.9 µM) | 11.5 mg/L (≈ 33.5 µM) | 22 mm | 3.9 mg/L (≈ 11.3 µM) | 15.6 mg/L (≈ 45.4 µM) | 7.81 mg/L (≈ 22.7 µM) | 24 mm | 26.4 µM | 8.88 mg/L (≈ 25.8 µM) | 8.88 mg/L (≈ 25.8 µM) | 15.6 mg/L (≈ 45.4 µM) | 24 mm | 5.04 mg/L (≈ 14.6 µM) | 19 mm | 23 mm | 6.25 mg/L (≈ 18.2 µM) | 46.2 mg/L (≈ 134 µM) | MIC (Staphylococcus aureus [19]): 35.5 mg/L (≈ 103 µM); MBC (Pseudomonas aeruginosa [20]): 7.99 mg/L (≈ 23.2 µM); zone of inhibition at 500 µg/mL (Escherichia coli [21]): 25 mm; MIC (Escherichia coli [22]): 3.9 mg/L (≈ 11.3 µM); zone of inhibition at 500 µg/mL (Staphylococcus aureus [23]): 24 mm; zone of inhibition at 500 µg/mL (Enterococcus faecalis [24]): 23 mm; MIC (Aspergillus brasiliensis [25]): 62.5 mg/L (≈ 182 µM); zone of inhibition at 500 µg/mL (Escherichia coli [26]): 25 mm; zone of inhibition at 500 µg/mL (Salmonella typhimurium [27]): 23 mm; MBC (Salmonella typhimurium [28]): 28.1 mg/L (≈ 81.6 µM); MFC (Aspergillus brasiliensis [29]): 100 mg/L (≈ 290 µM); MIC (Pseudomonas aeruginosa [30]): 4.44 mg/L (≈ 12.9 µM)
2 | CCOC(=O)/C(C#N)=C1\C(=O)Nc2ccc(S(=O)(=O)N3CCOCC3)cc21 | 3.14 mg/L (≈ 8.02 µM) | 152.3% | 10.6 mg/L (≈ 27.1 µM) | 1.95 mg/L (≈ 4.98 µM) | 7.8 mg/L (≈ 19.9 µM) | 23 mm | 1.95 mg/L (≈ 4.98 µM) | 31.2 mg/L (≈ 79.8 µM) | 3.9 mg/L (≈ 9.96 µM) | 25 mm | 27 µM | 3.9 mg/L (≈ 9.96 µM) | 3.7 mg/L (≈ 9.45 µM) | 7.8 mg/L (≈ 19.9 µM) | 25 mm | 3.12 mg/L (≈ 7.97 µM) | 18 mm | 24 mm | 6.25 mg/L (≈ 16 µM) | 21.9 mg/L (≈ 55.9 µM) | MIC (Staphylococcus aureus [19]): 15.6 mg/L (≈ 39.9 µM); MBC (Pseudomonas aeruginosa [20]): 7.8 mg/L (≈ 19.9 µM); zone of inhibition at 500 µg/mL (Escherichia coli [21]): 26 mm; MIC (Escherichia coli [22]): 1.57 mg/L (≈ 4.01 µM); zone of inhibition at 500 µg/mL (Staphylococcus aureus [23]): 25 mm; zone of inhibition at 500 µg/mL (Enterococcus faecalis [24]): 24 mm; MIC (Aspergillus brasiliensis [25]): 88.3 mg/L (≈ 226 µM); zone of inhibition at 500 µg/mL (Escherichia coli [26]): 26 mm; zone of inhibition at 500 µg/mL (Salmonella typhimurium [27]): 24 mm; MBC (Salmonella typhimurium [28]): 62.5 mg/L (≈ 160 µM); MFC (Aspergillus brasiliensis [29]): 124 mg/L (≈ 316 µM); MIC (Pseudomonas aeruginosa [30]): 3.9 mg/L (≈ 9.96 µM)
